Laboratory results published in patent US8759318B2, “Phosphoramidate derivatives of guanosine nucleoside compounds for treatment of viral infections” (Inhibitex, Inc., priority 2009, dated 2014).

Experiments:
[1] = Cytotoxicity assay (CellTiter-Glo); settings: human, Huh7 HCV replicon cells (genotype 1b)
[2] = tested on: HCV replicon (Genotype 1b); experiment: Luciferase genotype 1b replicon potency assay; settings: Hepatitis C virus, GETYPE1B, read-out: IC50 μM, HCV genotype 1b luciferase replicon, Renilla luciferase reporter
[3] = mouse, in vivo, po, 50 mg/kg
[4] = Mouse PK: 2'-C-methylguanosine triphosphate levels in liver; settings: 2'-C-methylguanosine triphosphate in mouse liver, 50 mg/kg PO
[5] = tested on: Huh7 replicon cells; experiment: Cytotoxicity assay (CellTiter-Glo); settings: read-out: CC50 μM; 72 h, CellTiter-Glo

| SMILES | CC50 at 72 h [1] | IC50 [2] | Multiple Above IC90 at Cmax [3] | AUC0-6 [4] | AUC0-24 [4] | CC50 [5] |
| --- | --- | --- | --- | --- | --- | --- |
| CSc1nc(N)nc2c1ncn2[C@@H]1O[C@H](CO)[C@@H](O)[C@@]1(C)O [Example 88, (2R,3R,4R,5R)-2-(2-amino-6-(methylthio)-9H-purin-9-yl)-5-(hydroxymethyl)-3-methyltetrahydrofuran-3,4-diol] | 150 µM | 11 µM | – | – | – | – |
| COc1nc(N)nc2c1ncn2[C@@H]1O[C@H](CO)[C@@H](O)[C@@]1(C)O [Example 2, (2R,3R,4R,5R)-2-(2-amino-6-methoxy-9H-purin-9-yl)-5-(hydroxymethyl)-3-methyltetrahydrofuran-3,4-diol] | – | 3.1 µM | 25.1 | 8748 ng·h/g | 30618 ng·h/g | > 100 µM |
| COc1nc(NCc2ccc(F)cc2)nc2c1ncn2[C@@H]1O[C@H](CO)[C@@H](O)[C@@]1(C)O [Example 92, (2R,3R,4R,5R)-2-(2-(4-fluorobenzylamino)-6-methoxy-9H-purin-9-yl)-5-(hydroxymethyl)-3-methyltetrahydrofuran-3,4-diol] | > 100 µM | > 40 µM | – | – | – | – |
| CNc1nc(N)nc2c1ncn2C1O[C@H](CO)[C@@H](O)[C@@]1(C)O (stereo partly drawn) [Example 80, (3R,4R,5R)-2-(2-amino-6-(methylamino)-9H-purin-9-yl)-5-(hydroxymethyl)-3-methyltetrahydrofuran-3,4-diol] | > 100 µM | 13 µM | – | – | – | – |
| COc1nc(N)nc2c1ncn2C1O[C@H](CO)C[C@@]1(C)O (stereo partly drawn) [Example 94, (3R,5S)-2-(2-amino-6-methoxy-9H-purin-9-yl)-5-(hydroxymethyl)-3-methyl-tetrahydrofuran-3-ol] | > 100 µM | > 100 µM | – | – | – | – |
